The results in this text go back to patent US4005132A, “Process for reacting trialkyl boranes with compounds containing protons” (Studiengesellschaft Kohle m.b.H., priority 1971, dated 1977).

A short description of series [1]: Thermal stability (vacuum distillation / decomposition on heating). In kind it is physicochemical.
Series [2] in a line: Solubility of diethylborylated sugars and polysaccharides. Type of series: physicochemical.

`CCB(CC)OC[C@H]1O[C@H](OC)[C@H](OB(CC)CC)[C@@H](OB(CC)CC)[C@@H]1OB(CC)CC` [2,3,4,6-tetrakis(diethylboryl)-α-methyl-D-(+)-glucoside]: the “stability on vacuum distillation” value in series [1] is “without decomposition”. Further, the solubility in hydrocarbons result in series [2] is recorded as “very readily soluble”.

For the compound `CCB(CC)OC[C@H]1O[C@@H]2O[C@H]3[C@H](OB(CC)CC)[C@@H](OB(CC)CC)[C@@H](O[C@H]4[C@H](OB(CC)CC)[C@@H](OB(CC)CC)[C@@H](O[C@H]5[C@H](OB(CC)CC)[C@@H](OB(CC)CC)[C@@H](O[C@H]6[C@H](OB(CC)CC)[C@@H](OB(CC)CC)[C@@H](O[C@H]7[C@H](OB(CC)CC)[C@@H](OB(CC)CC)[C@@H](O[C@H]8[C@H](OB(CC)CC)[C@@H](OB(CC)CC)[C@@H](O[C@H]1[C@H](OB(CC)CC)[C@H]2OB(CC)CC)O[C@@H]8COB(CC)CC)O[C@@H]7COB(CC)CC)O[C@@H]6COB(CC)CC)O[C@@H]5COB(CC)CC)O[C@@H]4COB(CC)CC)O[C@@H]3COB(CC)CC` [(I), Per-O-diethylboryl-cyclohepta-amylose], the “Decomposition of the compound begins at” value in series [1] (with evolution of triethyl borane) amounted to 141 °C. Also, the “solubility in aliphatic and aromatic hydrocarbons and in carbon tetrachloride” value in series [2] (aliphatic and aromatic hydrocarbons and carbon tetrachloride) is given as “soluble”.

In the case of `CCB(CC)OC[C@H](OB(CC)CC)[C@H]1OC(=O)C(OB(CC)CC)=C1OB(CC)CC` [2.3.5.6-Tetrakis-diethylboryl-L(+)-ascorbic acid], the “stability on vacuum distillation” value in series [1] is “without decomposition”. Besides, the solubility in hydrocarbons entry in series [2] is reported as “very readily soluble”.

For `CCB(CC)OC[C@H]1OC(OB(CC)CC)[C@H](OB(CC)CC)[C@@H](OB(CC)CC)[C@@H]1OB(CC)CC` (single isomer, unassigned) [1,2,3,4,5-Pentakis-diethyl-boryl-D(+)-glucose], the “stability on distillation under high vacuum” value in series [1] (high vacuum, 136° C.) is reported as “without decomposition”. The “stability on vacuum distillation” value in series [1] is given as “without decomposition”. Moreover, in series [2], the solubility in hydrocarbons entry is given as “very readily soluble”.
